Reference: patent US20210212321A1, “STABILIZED FUNGICIDAL COMPOSITION COMPRISING CYCLODEXTRIN” (Bayer CropScience LP, priority 2018, published 2021)
One block for each compound: values may come before it.

Columns and labels:
Type in all cases: physicochemical
[1] = Storage of Prothioconazole SC for two months with or without nitrogen purging; prothioconazole desthio quantified by LC-MS; conditions: sample D compared to samples A and B
Experimental: All samples were stored in glass containers with exposure to ambient light at room temperature for two months. Certain samples were also wrapped with foil to limit exposure to ambient oxygen. At the conclusion of the storage period, prothioconazole desthio was quantified in each sample using LC-MS.
This study was conducted with the same group of samples stored for two months in containers made of plastic instead of glass, and similar results were observed.

[2] = Storage stability of RAXIL PRO MD + penflufen with increasing methyl cyclodextrin (HPLC); conditions: RAXIL PRO MD+PFL (1.38% w/w), highest concentration of cyclodextrin (MeCD); two weeks at 54° C.
Source text: A sample containing PTZ without any PFL or cyclodextrin was included as the “Control” in FIGS. 3 and 4.

[3] = Storage of RAXIL PRO MD for two weeks with or without nitrogen purging; prothioconazole desthio quantified by LC-MS; conditions: sample D compared to samples A, B and C
Experimental: RAXIL® PRO MD is a commercial product containing 1.47% prothioconazole, 0.29% tebuconazole, and 0.59% metalaxyl in an aqueous formulation. Samples of RAXIL® PRO MD were subjected to nitrogen purging by bubbling nitrogen gas through the samples for about 5 minutes. Control samples were not purged with nitrogen. The samples were then divided into the groups outlined in Table 1. Samples were either maintained in the dark or exposed to ambient light. In addition, certain samples were wrapped in foil to minimize contact with ambient oxygen while others were not. All samples were stored at room temperature.
After two weeks of storage under these conditions, prothioconazole desthio was quantified in each sample using liquid chromatography mass spectrometry (LC-MS) using a SCIEX TRIPLE QUAD™6500 and a standard curve generated with a prothioconazole desthio chemical standard.

[4] = Storage stability of prothioconazole/penflufen mixture with 25 wt % MeCD at various temperatures (HPLC); conditions: for % Degradation (PTZ) / % PTZ / % PFL: with 25 wt % MeCD
Experimental: Aqueous solutions of a mixture of prothioconazole (PTZ) at a concentration of about 1.5% (w/w), and penflufen at a concentration of about 1.65% (w/w), were prepared and physically mixed with MeCD at 25 wt %. These samples were stored for two weeks at 54° C., for eight weeks at 40° C., or for 6 months at 30° C. The initial amount of PTZ or PFL in each sample was measured together with the final amount of PTZ or PLF after storage using HPLC.

[5] = Storage stability of aqueous prothioconazole solutions with or without cyclodextrins (LC-MS); conditions: two weeks at 54° C.
Experimental: Aqueous solutions of prothioconazole (PTZ) at a concentration of about 1% to about 1.5% (w/w) were prepared. These samples were stored for two weeks at 54° C., for eight weeks at 40° C., or for 52 weeks at 20° C. The initial amount of PTZ in each sample was measured together with the final amount of PTZ after storage using LC-MS as outlined in Example 1. From these measurements the percentage of PTZ remaining after storage was calculated and ranged from about 94% to about 97% (see FIG. 1A).
In a separate experiment, the ability of two different cyclodextrins, 2-hydroxypropyl-β cyclodextrin (HPCD) and methyl-β cyclodextrin (MeCD), to stabilize PTZ was evaluated. Aqueous solutions of PTZ at a concentration of about 1% to about 1.5% (w/w) were mixed with 15% (w/w) HPCD or 15% (w/w) MeCD. A control sample contained no cyclodextrins. The samples were stored for two weeks at 54° C., and the percentage of PTZ remaining after storage was calculated as before using LC-MS.

Structure (SMILES): OC(Cc1ccccc1Cl)(Cn1nc[nH]c1=S)C1(Cl)CC1 (racemic) [Prothioconazole, 2-[2-(1-chlorocyclopropyl)-3-(2-chloro-phenyl)-2-hydroxy-propyl]-2,4-dihydro-3H-1,2,4-triazole-3-thione]
Level of degradation to prothioconazole desthio, sample exposed to light and ambient oxygen versus nitrogen-stabilized samples [1]: about ten times higher | reduction in degradation of PTZ [2]: 86% | Level of degradation to prothioconazole desthio, samples not purged with nitrogen versus nitrogen-stabilized samples and samples stored in the dark [3]: over ten times higher | % Degradation (PTZ) ([4]; Table 3, 30° C. for 6 months): 2.01% | % PTZ ([4]; Table 3, 30° C. for 6 months): 1.46% | % Degradation (PTZ) ([4]; Table 3, 40° C. for 8 weeks): 4.03% | % PTZ ([4]; Table 3, 40° C. for 8 weeks): 1.43% | % Degradation (PTZ) ([4]; Table 3, 54° C. for 2 weeks): 2.68% | % PTZ ([4]; Table 3, 54° C. for 2 weeks): 1.45% | % Degradation (PTZ) ([4]; Table 3, T0): 0% | % PTZ ([4]; Table 3, T0): 1.49% | % Degradation (PTZ) ([4]; Table 4, 30° C. for 6 months): 2.01% | % PTZ ([4]; Table 4, 30° C. for 6 months): 1.46% | % Degradation (PTZ) ([4]; Table 4, 40° C. for 8 weeks): 4.70% | % PTZ ([4]; Table 4, 40° C. for 8 weeks): 1.42% | % Degradation (PTZ) ([4]; Table 4, 54° C. for 2 weeks): 2.01% | % PTZ ([4]; Table 4, 54° C. for 2 weeks): 1.46% | % Degradation (PTZ) ([4]; Table 4, T0): 0% | % PTZ ([4]; Table 4, T0): 1.49% | degradation of PTZ ([5]; mixed with 15% (w/w) HPCD): no observable degradation | degradation of PTZ ([5]; mixed with 15% (w/w) MeCD): no observable degradation

reduction in degradation of PFL [2]: 65% | % Degradation (PFL) ([4]; 0 weeks, 1.65 % (w/w)): 0% | % PFL ([4]; Table 3, 30° C. for 6 months): 1.62% | % PFL ([4]; Table 3, 40° C. for 8 weeks): 1.54% | % PFL ([4]; Table 3, 54° C. for 2 weeks): 1.6% | % PFL ([4]; Table 3, T0): 1.68% | % PFL ([4]; Table 4, 30° C. for 6 months): 1.58% | % PFL ([4]; Table 4, 40° C. for 8 weeks): 1.60% | % PFL ([4]; Table 4, 54° C. for 2 weeks): 1.58% | % PFL ([4]; Table 4, T0): 1.64%
Structure (SMILES): Cc1nn(C)c(F)c1C(=O)Nc1ccccc1C(C)CC(C)C (stereo not shown) [Penflufen, N[2-(1,3-dimethylbutyl)phenyl]-5-fluoro-1,3-dimethyl pyrazole-4-carboxamide]
